Laboratory results: PubChem BioAssay AID330 (DTP/NCI, 2004)
“And” between values parts separate entries of the source, which are not always exact repeats. Identical values can stand only once. Inconclusive results and toxic doses are left out. Rule for the calls: active = survival T/C of 150% or more; inactive = T/C below 125% in these data. Peptide text beside a SMILES is read from it.

Test system: P388 leukemia ip, CD2F1 mice, survival T/C
Test: NCI In Vivo Anticancer Drug Screen. Data for tumor model P388 Leukemia (intraperitoneal) in CD2F1 (CDF1) mice
Conditions: endpoint: median survival time, higher = longer survival
How it was run: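 Mice carrying the transplanted tumor received test compound or vehicle. Survival was recorded in each group, and the value is the treated-group measurement divided by that of the vehicle-treated control group.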

[1] = dose: 60.0 mg/kg/injection, schedule: Q01DX005 (ip), vehicle: saline with Tween-80
[2] = dose: 120.0 mg/kg/injection, schedule: Q01DX005 (ip), vehicle: saline with Tween-80
[3] = dose: 240.0 mg/kg/injection, schedule: Q01DX005 (ip), vehicle: saline with Tween-80
[4] = dose: 50.0 mg/kg/injection, schedule: Q01DX009 (ip), vehicle: Klucel (hydroxypropylcellulose) (HPC)
[5] = dose: 100.0 mg/kg/injection, schedule: Q01DX009 (ip), vehicle: Klucel (hydroxypropylcellulose) (HPC)
[6] = dose: 200.0 mg/kg/injection, schedule: Q01DX009 (ip), vehicle: Klucel (hydroxypropylcellulose) (HPC)
[7] = dose: 60.0 mg/kg/injection, schedule: Q01DX005 (ip), vehicle: Klucel (hydroxypropylcellulose) (HPC)
[8] = dose: 120.0 mg/kg/injection, schedule: Q01DX005 (ip), vehicle: Klucel (hydroxypropylcellulose) (HPC)
[9] = dose: 240.0 mg/kg/injection, schedule: Q01DX005 (ip), vehicle: Klucel (hydroxypropylcellulose) (HPC)
[10] = dose: 25.0 mg/kg/injection, schedule: Q01DX005 (ip), vehicle: saline
[11] = dose: 50.0 mg/kg/injection, schedule: Q01DX005 (ip), vehicle: saline
[12] = dose: 100.0 mg/kg/injection, schedule: Q01DX005 (ip), vehicle: saline
[13] = dose: 100.0 mg/kg/injection, schedule: Q04DX002 (ip), vehicle: Klucel (hydroxypropylcellulose) (HPC)
[14] = dose: 200.0 mg/kg/injection, schedule: Q04DX002 (ip), vehicle: Klucel (hydroxypropylcellulose) (HPC)
[15] = dose: 50.0 mg/kg/injection, schedule: Q01DX005 (ip), vehicle: saline with Tween-80
[16] = dose: 100.0 mg/kg/injection, schedule: Q01DX005 (ip), vehicle: saline with Tween-80
[17] = dose: 200.0 mg/kg/injection, schedule: Q01DX005 (ip), vehicle: saline with Tween-80
[18] = dose: 50.0 mg/kg/injection, schedule: Q01DX009 (ip), vehicle: saline with Tween-80
[19] = dose: 100.0 mg/kg/injection, schedule: Q01DX009 (ip), vehicle: saline with Tween-80
[20] = dose: 200.0 mg/kg/injection, schedule: Q01DX009 (ip), vehicle: saline with Tween-80

Measured: T/C

CC(C)COC(=O)C(CC(C)C)NC(=O)C(C)O (configuration not stated)
inactive: dose: 50.0 mg/kg/injection, schedule: Q01DX001 (ip), vehicle: suspension in saline 103 % of control | [1] 97 % of control | dose: 100.0 mg/kg/injection, schedule: Q01DX001 (ip), vehicle: suspension in saline 92 % of control | [2] 101 % of control | dose: 200.0 mg/kg/injection, schedule: Q01DX001 (ip), vehicle: suspension in saline 103 % of control | [3] 100 % of control | dose: 400.0 mg/kg/injection, schedule: Q01DX001 (ip), vehicle: suspension in saline 104 % of control

CCOC(=O)C(Cc1csc2ccc(Cl)cc12)NC(C)=O (configuration not stated)
inactive: [4] 94 % of control | [5] 95 % of control | [6] 99 % of control

CC(=O)Oc1cc2c(C)c3ccccc3cc2c2ccccc12
inactive: dose: 75.0 mg/kg/injection, schedule: Q01DX001 (ip), vehicle: Klucel (hydroxypropylcellulose) (HPC) 102 % of control | dose: 150.0 mg/kg/injection, schedule: Q01DX001 (ip), vehicle: Klucel (hydroxypropylcellulose) (HPC) 102 % of control | dose: 300.0 mg/kg/injection, schedule: Q01DX001 (ip), vehicle: Klucel (hydroxypropylcellulose) (HPC) 100 % of control

COC(=O)CC1(C(=O)OC)c2sc(C(C)C)cc2N2CCCC21 (configuration not stated)
inactive: dose: 10.0 mg/kg/injection, schedule: Q01DX009 (ip), vehicle: Klucel (hydroxypropylcellulose) (HPC) 97 % of control | dose: 20.0 mg/kg/injection, schedule: Q01DX009 (ip), vehicle: Klucel (hydroxypropylcellulose) (HPC) 93 % of control | dose: 40.0 mg/kg/injection, schedule: Q01DX009 (ip), vehicle: Klucel (hydroxypropylcellulose) (HPC) 93 % of control | dose: 80.0 mg/kg/injection, schedule: Q01DX009 (ip), vehicle: Klucel (hydroxypropylcellulose) (HPC) 91 % of control

O=C1CCCCCCCCCCCCCCCO1
inactive: dose: 6.25 mg/kg/injection, schedule: Q01DX009 (ip), vehicle: Klucel (hydroxypropylcellulose) (HPC) 103 % of control | dose: 12.5 mg/kg/injection, schedule: Q01DX009 (ip), vehicle: Klucel (hydroxypropylcellulose) (HPC) 98 % of control and 115 % of control | dose: 25.0 mg/kg/injection, schedule: Q01DX009 (ip), vehicle: Klucel (hydroxypropylcellulose) (HPC) 104 % of control and 97 % of control | [4] 100 % of control and 120 % of control and 91 % of control | [5] 109 % of control | [6] 111 % of control | dose: 400.0 mg/kg/injection, schedule: Q01DX009 (ip), vehicle: Klucel (hydroxypropylcellulose) (HPC) 109 % of control

CCC(CC)C1NC(C(=O)O)CS1 (configuration not stated)
inactive: dose: 50.0 mg/kg/injection, schedule: Q01DX009 (ip), vehicle: suspension in saline 93 % of control | dose: 100.0 mg/kg/injection, schedule: Q01DX009 (ip), vehicle: suspension in saline 96 % of control | dose: 200.0 mg/kg/injection, schedule: Q01DX009 (ip), vehicle: suspension in saline 92 % of control

O=C(Nc1ccc(F)cc1)NN1CCOCC1
inactive: [1] 102 % of control | [2] 104 % of control | [3] 103 % of control

COc1ccc2c(c1)CCc1c-2n[nH]c1-c1[nH]nc2c1CCc1cc(OC)ccc1-2
inactive: [7] 93 % of control | [8] 93 % of control | [9] 94 % of control

COC(=O)C1(C(=O)OC)O[C@@H](c2ccccc2)[C@H]2C(=O)N(C)C(=O)[C@H]21
inactive: [7] 99 % of control | [8] 101 % of control | [9] 110 % of control

N#CC1(OC2OC(CO)C(O)C(O)C2O)C=CC(O)C1 (configuration not stated)
inactive: [10] 91 % of control | [11] 94 % of control | [12] 106 % of control

COC(=O)C(=O)c1c(C2CC2)[nH]c2[nH]n(-c3ccccc3)c(=O)c2c1=O
inactive: [1] 96 % of control | [2] 91 % of control

CCOC(=O)c1cc2c(nc1C)-c1cc(Cl)ccc1OC2OCc1ccccc1 (configuration not stated)
inactive: [1] 88 % of control | [2] 94 % of control | [3] 97 % of control

O=C(N/N=C/c1ccccn1)c1ccccc1
inactive: [7] 102 % of control | [8] 97 % of control | [9] 100 % of control

Cc1[nH]ccc(=O)c1OC(=O)C12CC3CC(CC(C3)C1)C2
inactive: dose: 50.0 mg/kg/injection, schedule: Q01DX005 (ip), vehicle: Klucel (hydroxypropylcellulose) (HPC) 94 % of control and 98 % of control | dose: 100.0 mg/kg/injection, schedule: Q01DX005 (ip), vehicle: Klucel (hydroxypropylcellulose) (HPC) 91 % of control and 97 % of control | dose: 200.0 mg/kg/injection, schedule: Q01DX005 (ip), vehicle: Klucel (hydroxypropylcellulose) (HPC) 101 % of control and 95 % of control | dose: 400.0 mg/kg/injection, schedule: Q01DX005 (ip), vehicle: Klucel (hydroxypropylcellulose) (HPC) 103 % of control and 98 % of control

CC(/C=C/c1ccc(O)cc1)=N\NC(N)=O
inactive: dose: 30.0 mg/kg/injection, schedule: Q01DX005 (ip), vehicle: Klucel (hydroxypropylcellulose) (HPC) 103 % of control | [7] 99 % of control | [8] 104 % of control | [9] 101 % of control

COc1cc(/C=N/O)c(SC)cc1OC
inactive: [13] 110 % of control | [14] 111 % of control

Nc1ncnc2c1ncn2CCOCC(O)CO (configuration not stated)
inactive: [1] 100 % of control | [2] 95 % of control | [3] 93 % of control

Cc1ccc(S(=O)(=O)OCC(OS(=O)(=O)c2ccc(C)cc2)C2OC3OC(C)(C)OC3C2O)cc1 (configuration not stated)
inactive: [15] 103 % of control | [16] 97 % of control | [17] 96 % of control

CSC(=S)n1nc(-c2ccccc2)c(N=Nc2ccc(Br)cc2)c1C
inactive: [13] 98 % of control | [14] 100 % of control | dose: 400.0 mg/kg/injection, schedule: Q04DX002 (ip), vehicle: Klucel (hydroxypropylcellulose) (HPC) 94 % of control

Cc1ccc(C(N)=Nc2ccccc2)cc1
inactive: [1] 100 % of control

CSC(SC)(SC)c1cc(C)no1
inactive: [1] 111 % of control | [2] 102 % of control | [3] 104 % of control

CC(C)CC(NC(=O)C(C)NC(=O)CN)C(=O)O (stereo not drawn) (H-Gly-Ala-Leu-OH; configuration not given here)
inactive: [15] 103 % of control | [16] 107 % of control | [17] 99 % of control

CC1CC(C)(C)N=C(CCC2CCCC23OCCO3)O1 (configuration not stated)
inactive: [18] 100 % of control | [19] 104 % of control | dose: 100.0 mg/kg/injection, schedule: Q04DX003 (ip), vehicle: saline sonified 96 % of control | [20] 95 % of control | dose: 200.0 mg/kg/injection, schedule: Q04DX003 (ip), vehicle: saline sonified 96 % of control | dose: 400.0 mg/kg/injection, schedule: Q04DX003 (ip), vehicle: saline sonified 100 % of control

CC(=O)Nc1cc(C(=O)O)cc(C(=O)O)c1
inactive: [18] 109 % of control | [19] 105 % of control | [20] 92 % of control

N#CC=Cc1ccc([N+](=O)[O-])s1 (mixture of isomers)
inactive: dose: 12.5 mg/kg/injection, schedule: Q01DX005 (ip), vehicle: saline with Tween-80 109 % of control | dose: 25.0 mg/kg/injection, schedule: Q01DX005 (ip), vehicle: saline with Tween-80 115 % of control

CS(=O)(=O)NC1CC(=O)N(Cc2ccccc2)C1=O (configuration not stated)
inactive: [10] 91 % of control | [11] 99 % of control | [12] 105 % of control
